Data on 1 molecule can be found in patent US8084394B2, “Method for the control of harmful micro-organisms and insects in crop protection with means of dipole-electrical air-jet spray-technology, ozonated water and UV-C irradiation” (priority 2003, dated 2011).

Data set [1] can be described thus: stability (half-life) of ozone as gas and in water. It is filed as physicochemical. To be noted: new injection technique with inorganic wetting agent; threefold. As for the experimental part: Ozone is a highly unstable molecule in gaseous form which disintegrated in a short period of time (half-life time ca. 20 minutes) again in oxygen.
With this new injection technique of the extensive mixing of ozone with the spray waters and with the combination of an inorganic wetting agent, the ozone concentration in the dissolved gas bubbles can be up to 17% and has a threefold capacity in the water (up to 1 hour) the fact that ozone gas is transforming to oxygen.
The half-life time of Ozone in water is approximately 2 minutes, in other words the ozone concentration in water is reduced by half every 2 minutes.

For data set [2] the following is noted: cited from earlier work.
The conditions of data set [3]: cited from earlier work. This is another data set of the same source.
The test system of another data set is microorganisms. To be noted: cited from earlier work.

Consider `O=[O+][O-]` [Ozone], for which the “capacity (persistence) of ozone in the water” value in data set [1] is on record as “up to 1 hour”. Further, the “exposition concentration unproblematic for permanent exposure” value in data set [2] is recorded as 0.1 mg per m3/air. In addition, the half-life time result in data set [3] (gaseous form, disintegration to oxygen) is “ca. 20 minutes”. Moreover, the “half-life time of Ozone in water” value in data set [3] (in water) is “approximately 2 minutes”. Moreover, the “speed of destruction of microorganisms relative to chlorine” value with microorganisms (faster than chlorine) is reported as 3125 times. In addition, the “reactivity relative to chlorine” value in the data set on microorganisms (more reactive than chlorine) is reported as 51 times.
